This passage reports melting point and Ki results from patent publication US20010051612A1, “2-Thioether A2A receptor agonists” (priority 2000, published 2001).

Data set [1] has as its target T1, A2A adenosine receptor (Sus scrofa, UniProt K9IW67).
T1 construct: from tissue; host or cells: pig striatum membranes
As to the kind of experiment: Affinity for the A2A receptor in a pig striatum membrane prep (displacement of tritiated ZM 241385). To be noted: pig striatal membranes, [3H]ZM 241385 2 nM, 23° C. 2h, Ki from IC50. The data set is classed as binding. Here is the method:
Compositions of this invention were assayed to determine their affinity for the A2A receptor in a pig striatum membrane prep. 0.2 mg of pig striatal membranes were treated with adenosine deaminase and 50 mM Tris buffer (pH=7.4) followed by mixing. […] After incubation at 23° C. for 2h, the solutions were filtered using a membrane harvester using multiple washing of the membranes (3×). The filter disks were counted in scintillation cocktail affording the amount of displacement of tritiated ZM by the competitive binding compositions of this invention. Greater than a 5 point curve was used to generate IC50's and the number of experiments (n) is indicated in the column marked in Tables 3-4 below. The Chang-Prusoff equation was used to generate Ki's from the IC50 data.

Data set [2] has as its target T2, A1 (Homo sapiens, UniProt P30542).
T2 sequence (P30542 1-326): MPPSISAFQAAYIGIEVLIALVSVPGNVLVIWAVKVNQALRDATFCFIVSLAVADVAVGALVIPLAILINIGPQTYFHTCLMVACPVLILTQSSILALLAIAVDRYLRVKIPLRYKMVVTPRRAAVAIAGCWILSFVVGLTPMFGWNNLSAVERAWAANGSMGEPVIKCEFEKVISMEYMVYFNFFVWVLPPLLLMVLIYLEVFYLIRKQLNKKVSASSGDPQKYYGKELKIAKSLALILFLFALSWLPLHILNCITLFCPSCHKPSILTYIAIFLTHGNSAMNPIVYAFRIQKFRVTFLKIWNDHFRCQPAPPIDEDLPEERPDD
As to the kind of experiment: Affinity for the A1 receptor (Ki column, no method described). The data set is classed as binding. The note with it: compounds 1a-5a table.

Where only a bound is given, the exact number is not on record here.

Usually melting point stands for the temperature, or range, at which the solid turns liquid. By Ki is commonly meant a dissociation constant, usually derived from enzyme kinetics or from competition with a known ligand. Higher therefore signals lower affinity.

T1 sequence (K9IW67 1-409): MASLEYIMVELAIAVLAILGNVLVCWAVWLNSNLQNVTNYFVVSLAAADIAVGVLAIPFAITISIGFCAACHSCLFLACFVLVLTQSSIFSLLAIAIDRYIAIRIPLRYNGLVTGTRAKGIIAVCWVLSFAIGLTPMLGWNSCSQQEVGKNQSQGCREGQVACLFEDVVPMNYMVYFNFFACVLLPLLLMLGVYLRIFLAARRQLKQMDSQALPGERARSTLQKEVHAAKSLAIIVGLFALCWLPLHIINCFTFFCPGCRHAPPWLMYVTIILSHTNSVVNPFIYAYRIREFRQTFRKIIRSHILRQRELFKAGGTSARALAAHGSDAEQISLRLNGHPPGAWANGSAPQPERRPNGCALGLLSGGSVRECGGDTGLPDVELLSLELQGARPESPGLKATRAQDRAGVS

`Nc1nc(Sc2ccccc2)nc2c1ncn2[C@@H]1O[C@H](CO)[C@@H](O)[C@H]1O` [Compound 1, (4S, 2R, 3R, 5R)-2-(6-amino-2-phenylthiopurin-9-yl)-5-(hydroxymethyl)oxolane-3,4-diol] yielded a melting point of 137 to 139 °C. Besides, in data set [1] (Table 3, compounds 1-7), the Ki is over 10000 nM. With `CCNC(=O)[C@H]1O[C@@H](n2cnc3c(N)nc(Sc4ccccc4)nc32)[C@H](O)[C@@H]1O` [Compound 1a, [(2S, 3S, 4R, 5R)-5-(6-amino-2-phenylthiopurin-9-yl)-3,4-dihydroxyoxolan-2yl]-N -ethylcarboxamide], the melting point is 122 to 125 °C. The same compound registered a Ki in data set [1] (compounds 1a-5a) of 6120 nM. `Nc1nc(SCc2ccccc2)nc2c1ncn2[C@@H]1O[C@H](CO)[C@@H](O)[C@H]1O` [Compound 2, (4S, 2R. 3R, 5R)-2-(6-amino-2-phenylmethylthiopurin-9-yl)-5-(hydroxymethyl)-oxolane-3,4-diol] gave a Ki in data set [1] (Table 3, compounds 1-7) of 9540 nM. For the compound `CCNC(=O)[C@H]1O[C@@H](n2cnc3c(N)nc(SCc4ccccc4)nc32)[C@H](O)[C@@H]1O` [Compound 2a, [(2S, 3S, 4R, 5R)-5-(6-amino-2-(phenylmethylthio)purin-9-yl)-3,4-dihydroxyoxolan-2yl]-N-ethylcarboxamide], the melting point was 245 °C (dec.). In data set [1] (compounds 1a-5a), this compound returned a Ki of over 10000 nM. Regarding `CCNC(=O)[C@H]1O[C@@H](n2cnc3c(N)nc(SCCc4ccccc4)nc32)[C@H](O)[C@@H]1O` [Compound 3a, [(2S, 3S, 4R, 5R)-5-(6-amino-2-(phenylethylthio)purin-9-yl)-3,4-dihydroxyoxolan-2-yl]-N-ethylcarboxamide], the melting point was in the range of 97 to 99 °C. Further, the Ki in data set [2] was over 10000 nM. The same compound displayed a Ki in data set [1] (compounds 1a-5a) of 85 nM. Compound `Nc1nc(SCCCc2ccccc2)nc2c1ncn2[C@@H]1O[C@H](CO)[C@@H](O)[C@H]1O` [Compound 4, (4S, 2R, 3R, 5R)-2-(6-amino-2-phenylpropylthiopurin-9-yl)-5-(hydroxymethyl)oxolane-3,4-diol] returned a Ki in data set [1] (Table 3, compounds 1-7) of over 10000 nM. Consider `CCNC(=O)[C@H]1O[C@@H](n2cnc3c(N)nc(SCCCc4ccccc4)nc32)[C@H](O)[C@@H]1O` [Compound 4a, [(2S, 3S, 4R, 5R)-5-(6-amino-2-(phenylpropylthio)purin-9-yl)-3,4-dihydroxyoxolan-2-yl]-N-ethylcarboxamide], for which the melting point lay within 185 to 188 °C. Besides, affinity in data set [1] (compounds 1a-5a) was put at a Ki of 6280 nM. On to `CCCCCSc1nc(N)c2ncn([C@@H]3O[C@H](CO)[C@@H](O)[C@H]3O)c2n1` [Compound 5, (4S, 2R,3R, 5R)-2-(6-amino-2-pentyltiopurin-9-yl)-5-(hydroxymethymethyl)oxolane-3,4-diol], for which the melting point is 177 °C (dec.). In data set [1] (Table 3, compounds 1-7), the Ki is over 10000 nM. As for `CCCCCSc1nc(N)c2ncn([C@@H]3O[C@H](C(=O)NCC)[C@@H](O)[C@H]3O)c2n1` [Compound 5a, [(2S, 3S, 4R, 5R)-5-(6-amino-2-pentylthiopurin-9-yl)-3,4-dihydroxyoxolan-2-yl]-N-ethylcarboxamide], the melting point is > 270 °C (dec.). For the same compound, the affinity in data set [1] (compounds 1a-5a), expressed as Ki, was 4310 nM.

For the compound `Nc1nc(SCCCCO)nc2c1ncn2[C@@H]1O[C@H](CO)[C@@H](O)[C@H]1O` [Compound 6, (4S, 2R, 3R, 5R)-2-(6-amino-2-(4-hydroxybutylthio)purin-9-yl)-5-(hydroxymethyl)oxolane-3,4-diol], the melting point was in the range of 88 to 90 °C. Besides, the Ki in data set [1] (Table 3, compounds 1-7) is over 100000 nM. Consider `Nc1nc(SC2CCCC2)nc2c1ncn2[C@@H]1O[C@H](CO)[C@@H](O)[C@H]1O` [Compound 7, (4S, 2R, 3R, 5R)-2-(6-amino-2-cyclopentylthiopurin-9-yl)-5-(hydroxymethyl)oxolane-3,4-diol], for which the melting point is 213 °C (dec.). In data set [1] (Table 3, compounds 1-7), the Ki was over 10000 nM.
